Assay: Solubility test of PAPAP derivatives in cyclohexanone with thermal stirring
Type: physicochemical
Conditions: 10 mg compound in 1 mL cyclohexanone, thermal stirring at about 100° C.
Method: Solubility tests were performed on PAPAP-1 and PAPAP-0 obtained from the Synthetic Example using cyclohexanone as a solvent. 10 mg of each of PAPAP-1 and PAPAP-0 was measured, 1 mL of cyclohexanone was added thereto, and thermal stirring was performed at a temperature of about 100° C.
The solubilities of PAPAP-12 and PAPAP-1 were tested using cyclohexanone as a solvent. 10 mg of each of PAPAP-12 and PAPAP-1 was measured, 1 mL of cyclohexanone was added thereto, and thermal stirring was performed at a temperature of about 100° C.

Row | solubility in cyclohexanone | SMILES
1 | insoluble | COc1ccc(-c2c3ccccc3c(-c3ccc(-c4c5ccccc5c(-c5ccc(C#N)cc5)c5ccccc45)cc3)c3ccccc23)cc1 [PAPAP-0, reference compound]
2 | soluble | c1ccc(-c2ccccc2-c2c3ccccc3c(-c3ccc(-c4c5ccccc5c(-c5cccc(N(c6ccccc6)c6ccccc6)c5)c5ccccc45)cc3)c3ccccc23)cc1 [PAPAP-12]

Row | SMILES | solubility in cyclohexanone
3 | c1ccc(-c2ccccc2-c2c3ccccc3c(-c3ccc(-c4c5ccccc5c(-c5ccc(N(c6ccccc6)c6ccccc6)cc5)c5ccccc45)cc3)c3ccccc23)cc1 [PAPAP-1] | soluble
